What was measured:
[1] = tested on: CD4 T cells; test: Th1, Th2, Th17 differentiation of naive CD4 T cells in vitro; format: cell-based, mouse
Protocol: Levels of IL-4, IL-13, IL-17A, and IFN-γ in cell culture supernatants were measured by ELISA (eBioscience, San Diego, Calif.) as described by the manufacturer. Pregnenolone levels in serum and cell culture supernatants were measured by ELISA (ALPCO Diagnostics, Salem, N.H.), as described by the manufacturer. Differentiation of Th1, Th2, or Th17 cells was performed as previously described with minor changes (Ashino, S., et al. Intl. Immunol. 22:503-513 (2010)). CD4^+CD45RB^+ T cells were isolated from naive TCR-transgenic mice (OT II mice) spleen using a cell sorter (MoFlo XDP, Beckman Coulter). In the presence of mitomycin-C-treated spleen cells, 5 μg/ml OVA323-339 peptide, and the inhibitor AMG ([…]), isolated naive CD4 T cells were cultured with rmIL-2 (10 ng/ml, R/D Systems), rmIL-12 (10 ng/ml, Peprotech), rmIFN-γ (5 ng/ml, Peprotech), and anti-IL-4 mAbs (10 μg/ml, eBioscience) to induce Th1 cell differentiation; with rmIL-2 (10 ng/ml, R/D Systems), rmIL-4 (5 ng/ml, Peprotech), and anti-IFN-γ mAb (10 μg/ml, eBioscience) for differentiation of Th2 cells; and […], Peprotech), anti-IL-4 mAb (10 μg/ml, eBioscience), and anti-IFN-γ mAb (10 μg/ml, eBioscience) for differentiation of Th17 cells. After 6 days of culture, the cells were washed with fresh medium and restimulated with anti-CD3/anti-CD28 for 24 hrs for assay of cytokine production. The cells were collected for quantitative RT-PCR and Western blot. In some experiments (for transduction experiment), the cells were cultured under Th1, Th2, and Th17 polarizing conditions for 5 days as described in Methods. Cultured cells were lysed as previously described (Ohnishi, H., et al. J. Allergy Clin. Immunol. 121:864-871 (2008)). Lysates were resolved by means of SDS-PAGE and transferred to nitrocellulose membranes. Proteins were detected using antibodies specific for Cyp11a1 (LifeSpan Biosciences. Seattle, Wash.) followed by chemiluminescence detection (GE Healthcare, Little Chalfont, UK). RNA was extracted from jejunal tissue homogenates or from CD4 T cells cultured in vitro using Trizol (Invitrogen). cDNA was generated using the iScript cDNA synthesis kit (Bio-Rad Laboratories, Hercules, Calif.). Quantitative real-time PCR was performed on the ABI Prism 7300 sequence detection system (Applied Biosystems, Foster City, Calif.). All primers and probes used were purchased as Tagman Gene Expression Assays from Applied Biosystems. Fold change was calculated using the Delta Delta cycle threshold (ΔΔCT) method.

[2] = biological target: T1, Cyp11a1 (Mus musculus, UniProt Q9QZ82); test: Pregnenolone ELISA in supernatants of differentiated CD8+ T cells (Cyp11a1 enzymatic activity); format: cell-based; details: CD8+ T cells differentiated in IL-2+IL-4, AMG 500 μM; without AMG 424.8±35.5 pg/ml
T1 construct: mononuclear cells (MNCs) were processed from the spleens of OT-1 mice; endogenous in cells
T1 sequence (Q9QZ82 37-526): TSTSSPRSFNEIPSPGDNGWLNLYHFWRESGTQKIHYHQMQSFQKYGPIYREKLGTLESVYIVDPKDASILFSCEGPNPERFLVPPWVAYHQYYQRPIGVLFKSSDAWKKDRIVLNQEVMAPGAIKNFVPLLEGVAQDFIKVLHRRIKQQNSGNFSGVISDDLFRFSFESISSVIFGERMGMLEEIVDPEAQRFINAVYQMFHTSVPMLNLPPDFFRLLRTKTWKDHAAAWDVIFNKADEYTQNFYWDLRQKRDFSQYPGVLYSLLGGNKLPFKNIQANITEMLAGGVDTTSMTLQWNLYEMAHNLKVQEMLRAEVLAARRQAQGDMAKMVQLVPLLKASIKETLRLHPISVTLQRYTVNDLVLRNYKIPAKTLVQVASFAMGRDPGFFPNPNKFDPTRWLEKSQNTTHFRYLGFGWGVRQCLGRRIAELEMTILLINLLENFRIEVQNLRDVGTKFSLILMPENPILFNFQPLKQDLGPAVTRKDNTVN
Protocol: CD8^+ effector memory T cells were generated in vitro as previously described (Miyahara, N. et al. J. Immunol. 172, 2549-2558 (2004); Miyahara, N. et al. J. Immunol. 174, 4979-4984 (2005)). In brief, mononuclear cells (MNCs) were processed from the spleens of OT-1 mice followed by stimulation of 1 μg/ml [sequence] peptide (SEQ ID NO:1) was used to stimulate cells for 1.5 hours. Two days after culture, living cells were re-isolated using histopaque and cultured in complete RPMI 1640 medium that contained recombinant mouse IL-2 (20 ng/ml) (R&D, Minneapolis, Minn.) or IL-2+IL-4 (20 ng/ml) (Peprotech, Rocky Hill, N.J.). For some experiments, AMG was added into the medium together with IL-2 or IL-2+IL-4. Medium with cytokines was changed every day for a further 4 days. The cells were then re-stimulated with 1 μg/ml [sequence] (SEQ ID NO:1) in medium containing 2 μM monensin (Calbiochem, La Jolla, Calif.) for 4 hours.
CD8^+ T cells generated in the presence of IL-2, IL-2+IL-4, IL-2+AMG, or IL-2+IL-4+AMG were cultured in 6-well plates at 5×10^6/ml for 24 hours. Supernatants were collected. Pregnenolone levels were measured using the Pregnenolone ELISA kit (ALPCO Diagnostics, Salem, N.H.).
The enzymatic activity of Cyp11a1 was assessed using an ELISA assay for detection of pregnenolone levels in cell culture supernatants (Kim, C. J. et al. J. Clin. Endocrinol. Metab. 93, 696-702 (2008)).

[3] = polarized Th1, Th2 or Th17 cells, AMG 400 μM

## CCC1(c2ccc(N)cc2)CCC(=O)NC1=O (centres unmarked) [AMG, aminoglutethimide]
[1]; Th1 cells
  IFNG mRNA expression: no significant effects
[1]; Th2 cells, AMG 400 μM
  Pregnenolone levels in culture supernates: significantly decreased
[1]; Th17 cells, AMG 400 μM
  Pregnenolone levels in culture supernates: the decreases did not reach statistical significance
[1]; [3]
  Cyp11a1 mRNA expression levels: did not suppress
  Cyp11a1 protein expression levels: did not suppress
[1]; polarized Th1 cell cultures
  IFN-γ levels in culture supernatants: not affected
[1]; polarized Th1 cells, 400 μM
  T-bet mRNA expression: did not have any effect
[1]; polarized Th2 cell cultures
  IL-13 levels in culture supernatants: decreased
[1]; polarized Th2 cells
  IL13 mRNA: decreased
[1]; polarized Th2 cells, 400 μM
  GATA3 mRNA expression: did not have any effect
[1]; polarized Th17 cell cultures
  IL-17A levels in culture supernatants: decreased
[1]; polarized Th17 cells
  IL17A mRNA: decreased
[1]; polarized Th17 cells, 400 μM
  RORγt mRNA expression: did not have any effect
[2]
  Pregnenolone levels in cell supernatants: 96.4 ± 35 pg/mL
